Laboratory results from US9290688B2, “Alkaline microbial enhanced oil recovery” (GEO FOSSIL FUELS, LLC, priority 2011, dated 2016).

System: Rhodococcus rhodochrous ATCC #53968
Experiment: Digestion of Red River crude oil with and without beta-oxidation inhibitors; GC of methyl esters of extracted organic acids
Type: cell-based
Details: for Total GC (all peaks integrated by the GC integrator): 0.31 g oil sample; for conv. To umoles FA: approximately 1.0 micromoles per 100 area units; for Cal. AN (calculated acid number): estimated from GC areas
Protocol: An oil degrading microorganism was used to evaluate the use of chemical inhibitors to slow the utilization of hydrocarbons in petroleum. In a non-limiting example, three different chemical compounds that have been reported to inhibit beta-oxidation were tested in oil and culture medium on a petroleum sample with a strain of Rhodococcus rhodochrous ATCC #53968 in m9 minimal medium. To test the ability of each chemical inhibitor to slow the consumption of fatty acids a culture of bacteria was grown on a crude oil sample for a period of three days with crude petroleum oil as the only carbon source. Four separate flasks were set up, each with an oil to aqueous media ratio of 1 to 5 (10 ml of crude oil to 50 ml of culture medium). Each of the three chemical inhibitors was added to a separate flask and a fourth flask was allowed to digest without the addition of a chemical inhibitor as a control. The flasks were shaken at a room temperature of about 25° C. under aerobic conditions. The progress of the microbial digestion was monitored by the optical density at 600 nm and by visual inspection of the brown oil color in the aqueous phase. Three days after the addition of inhibitors, or a total of six days of incubation with oil, a small sample of oil (0.31 g) was removed. A second sample of the same size was remover after another 6 days. The organic acids were extracted from each oil sample with 1% NaOH in 70% ethanol. The samples were shaken vigorously for one minute. The aqueous extract material was then extracted with hexane to remove any trace of oil. The samples of extracted organic acids were then dried under vacuum and converted to methyl esters with BF3 in methanol.
The mixtures of methyl esters were analyzed by GC (gas chromatography) using a HP (Hewlett Packard) 5890 GC with an Agilent Technologies capillary column, HP-5 (crosslinked 5% PH) ME Siloxane 0.25 micrometer coating with a length of 30 meter and a column ID (internal diameter) of 0.32 mm. Helium was used as a carrier gas. Detection was by a FID detector and integration of peak areas was done with a HP 3396 integrator. The temperature program held an initial temperature of 40° C. for 1.0 minutes then increased at 15 degrees per minute to 280° C., and finally held at a temperature of 280° C. for 5 minutes. To quantify the amount of organic acids extracted by this procedure, a stock solution of 2-bromooctanoate and 2-bromohexadecanoate were added to a sample of undigested Red River crude petroleum oil and then extracted by the same procedure as the bio-digested oil samples. The average area for theses two organic acids was used to estimate the amount of organic acids in micromoles per area unit determined by the GC integrator. The number was calculated to be approximately 1.0 micromoles per 100 area units. The area units for each of the GC peaks are list in Table 2. This number was used to estimate the micromoles organic acids extracted from the oil. This estimate was used to calculate the number of mg of KOH that equaled the number of micromoles of organic acid estimated. This number is listed on the last row in Table 2 as the calculated AN (acid number) for each digestion experiment. These estimated numbers are only based on organic acids that are hydrophobic enough to stay in the oil phase and not move into the aqueous phase. Organic acids measured include the carboxylic acids made by the bacteria and that have been secreted out of the cell and have migrated back to the oil phase. They are also hydrocarbons that are small enough to be extracted into the ethanol aqueous extraction solvent. This number is likely to be less than the total acid number (TAN), a measure often used to evaluate crude petroleum for amenability to alkaline waterflooding.
The earlier eluting peaks are believed to represent methyl ester of lighter hydrocarbon carboxylic acids and the later eluting peaks are believed to represent methyl ester of the heavier organic acids. […]

[1] = 12 days, listed as acrylic acid

SMILES: C=CC(=O)O [AA, acrylic acid]
- GC peak area, retention time 4.5 (6 days): 0.242 area units
- GC peak area, retention time 5.6 (6 days): 0.948 area units
- GC peak area, retention time 6.6 (6 days): 2.856 area units
- GC peak area, retention time 7.6 (6 days): 2.724 area units
- GC peak area, retention time 8.2 (6 days): 0.703 area units
- GC peak area, retention time 8.5 (6 days): 1.907 area units
- GC peak area, retention time 9.4 (6 days): 1.575 area units
- GC peak area, retention time 10.2 (6 days): 1.591 area units
- GC peak area, retention time 11 (6 days): 2.134 area units
- GC peak area, retention time 11.5 (6 days): 2.596 area units
- GC peak area, retention time 11.7 (6 days): 2.416 area units
- GC peak area, retention time 12.3 (6 days): 1.097 area units
- GC peak area, retention time 12.5 (6 days): 4.385 area units
- GC peak area, retention time 13 (6 days): 0.521 area units
- GC peak area, retention time 13.1 (6 days): 1.769 area units
- GC peak area, retention time 13.2 (6 days): 3.486 area units
- GC peak area, retention time 13.4 (6 days): 1.122 area units
- GC peak area, retention time 13.6 (6 days): 0.783 area units
- GC peak area, retention time 13.8 (6 days): 2.448 area units
- GC peak area, retention time 14 (6 days): 0.447 area units
- GC peak area, retention time 14.2 (6 days): 0.78 area units
- SubTotal peak area, later peaks eluting after 13 minutes (6 days): 11.356 area units
- SubTotal peak area, peaks eluting before 13 minutes (6 days): 25.173 area units
- Total GC area For 1 ml (6 days): 175
- Total of all selected peaks (6 days): 36.529 area units
- Total GC (all peaks integrated by the GC integrator) (6 days): 54.17 area units
- conv. To umoles FA (6 days): 1.75 µmol
- Cal. AN (calculated acid number) (6 days): 0.098 mg of KOH
- GC peak area, retention time 4.2 (12 days): 0.58 area units
- GC peak area, retention time 4.5 (12 days): 1.051 area units
- GC peak area, retention time 4.6 (12 days): 1.519 area units
- GC peak area, retention time 5.6 (12 days): 2.754 area units
- GC peak area, retention time 6.6 (12 days): 7.835 area units
- GC peak area, retention time 7.6 (12 days): 5.761 area units
- GC peak area, retention time 8.2 (12 days): 0.558 area units
- GC peak area, retention time 8.5 (12 days): 3.369 area units
- GC peak area, retention time 9.4 (12 days): 0.747 area units
- GC peak area, retention time 10.2 (12 days): 0.588 area units
- GC peak area, retention time 11 (12 days): 1.736 area units
- GC peak area, retention time 11.5 (12 days): 2.968 area units
- GC peak area, retention time 11.7 (12 days): 3.716 area units
- GC peak area, retention time 12.3 (12 days): 2.722 area units
- GC peak area, retention time 12.5 (12 days): 6.208 area units
- GC peak area, retention time 12.7 (12 days): 1.6421 area units
- GC peak area, retention time 13 (12 days): 1.99 area units
- GC peak area, retention time 13.1 (12 days): 2.209 area units
- GC peak area, retention time 13.2 (12 days): 4.801 area units
- GC peak area, retention time 13.4 (12 days): 3.72 area units
- GC peak area, retention time 13.6 (12 days): 2.005 area units
- GC peak area, retention time 13.8 (12 days): 2.512 area units
- GC peak area, retention time 14 (12 days): 2.548 area units
- GC peak area, retention time 14.2 (12 days): 2.779 area units
- SubTotal peak area, later peaks eluting after 13 minutes (12 days): 22.564 area units
- SubTotal peak area, peaks eluting before 13 minutes (12 days): 43.754 area units
- Total GC area For 1 ml (12 days): 291
- Total of all selected peaks (12 days): 66.318 area units
- Total GC (all peaks integrated by the GC integrator) (12 days): 90.15 area units
- conv. To umoles FA (12 days): 2.91 µmol
- Cal. AN (calculated acid number) (12 days): 0.16 mg of KOH
- SubTotal peak area, later peaks eluting after 13 minutes [1]: 22.5 area units
- SubTotal peak area, peaks eluting before 13 minutes [1]: 43.7 area units

SMILES: CCCCCCC(Br)C(=O)O (centres unmarked) [Br C8, 2-bromooctanoic acid]
- GC peak area, retention time 4.5 (6 days): 0.351 area units
- GC peak area, retention time 5.6 (6 days): 0.835 area units
- GC peak area, retention time 6.6 (6 days): 2.783 area units
- GC peak area, retention time 7.6 (6 days): 2.476 area units
- GC peak area, retention time 8.2 (6 days): 0.682 area units
- GC peak area, retention time 8.5 (6 days): 1.443 area units
- GC peak area, retention time 9.4 (6 days): 1.146 area units
- GC peak area, retention time 10.2 (6 days): 1.618 area units
- GC peak area, retention time 11 (6 days): 2.608 area units
- GC peak area, retention time 11.5 (6 days): 1.69 area units
- GC peak area, retention time 11.7 (6 days): 3.004 area units
- GC peak area, retention time 12.3 (6 days): 1.604 area units
- GC peak area, retention time 12.5 (6 days): 4.566 area units
- GC peak area, retention time 12.7 (6 days): 1.145 area units
- GC peak area, retention time 13 (6 days): 1.421 area units
- GC peak area, retention time 13.1 (6 days): 2.61 area units
- GC peak area, retention time 13.2 (6 days): 3.047 area units
- GC peak area, retention time 13.4 (6 days): 2.196 area units
- GC peak area, retention time 13.6 (6 days): 1.314 area units
- GC peak area, retention time 13.8 (6 days): 3.341 area units
- GC peak area, retention time 14 (6 days): 1.661 area units
- GC peak area, retention time 14.2 (6 days): 0.963 area units
- SubTotal peak area, later peaks eluting after 13 minutes (6 days): 16.553 area units
- SubTotal peak area, peaks eluting before 13 minutes (6 days): 25.951 area units
- Total GC area For 1 ml (6 days): 250
- Total of all selected peaks (6 days): 42.504 area units
- Total GC (all peaks integrated by the GC integrator) (6 days): 77.5 area units
- conv. To umoles FA (6 days): 2.5 µmol
- Cal. AN (calculated acid number) (6 days): 0.14 mg of KOH
- GC peak area, retention time 4.2 (12 days): 0.47 area units
- GC peak area, retention time 4.5 (12 days): 0.943 area units
- GC peak area, retention time 5.6 (12 days): 1.656 area units
- GC peak area, retention time 6.6 (12 days): 4.625 area units
- GC peak area, retention time 7.6 (12 days): 3.349 area units
- GC peak area, retention time 8.2 (12 days): 0.497 area units
- GC peak area, retention time 8.5 (12 days): 1.763 area units
- GC peak area, retention time 9.4 (12 days): 0.681 area units
- GC peak area, retention time 10.2 (12 days): 0.387 area units
- GC peak area, retention time 11 (12 days): 0.985 area units
- GC peak area, retention time 11.5 (12 days): 3.548 area units
- GC peak area, retention time 11.7 (12 days): 2.41 area units
- GC peak area, retention time 12.3 (12 days): 2.973 area units
- GC peak area, retention time 12.5 (12 days): 5.664 area units
- GC peak area, retention time 13 (12 days): 2.785 area units
- GC peak area, retention time 13.1 (12 days): 4.367 area units
- GC peak area, retention time 13.2 (12 days): 7.327 area units
- GC peak area, retention time 13.4 (12 days): 8.161 area units
- GC peak area, retention time 13.6 (12 days): 4.176 area units
- GC peak area, retention time 13.8 (12 days): 4.901 area units
- GC peak area, retention time 14 (12 days): 4.709 area units
- GC peak area, retention time 14.2 (12 days): 1.74 area units
- SubTotal peak area, later peaks eluting after 13 minutes (12 days): 38.166 area units
- SubTotal peak area, peaks eluting before 13 minutes (12 days): 31.453 area units
- Total GC area For 1 ml (12 days): 373
- Total of all selected peaks (12 days): 69.619 area units
- Total GC (all peaks integrated by the GC integrator) (12 days): 115.7 area units
- conv. To umoles FA (12 days): 3.73 µmol
- Cal. AN (calculated acid number) (12 days): 0.21 mg of KOH
